What follows are compounds tested on GDF8 signaling (p-SMAD-3 (Ser423/425)) (assay: AlphaScreen SureFire SMAD3 (p-Ser423/425) assay, GDF8-stimulated cells (GDF pSMAD)). Details: Mus musculus, MPC-11, GDF8-stimulated pSMAD3, MPC11; tested as the salt form given; read-out: GDF pSMAD (MPC11) (μM), inhibition of GDF8 signaling.
Assay type: cell-based

| IC50 [µM] | SMILES |
| --- | --- |
| 3.61 | Fc1cc(F)c(F)c(-c2ncccc2-c2ccn3nccc3n2)c1 [compound 1052, 6-(2-(4-Fluoro-2,5-dimethylphenyl)pyridin-3-yl)-[,2,4]triazolo[1,5-a]pyridine] |
| 0.728 | Cc1cc(-c2ncccc2-c2ccc3ncnc(N)c3c2)c(Cl)cc1F [compound 1012, 6-(2-(2-chloro-4-fluoro-5-methylphenyl)pyridin-3-yl)quinazolin-4-amine] |
| 0.45 | Cc1ccc(Cl)c(-c2ncccc2-c2ccc3ncnc(N)c3c2)c1 [compound 984, 6-(2-(2-chloro-5-methylphenyl)pyridin-3-yl)quinazolin-4-amine] |

Same assay, conditions: Mus musculus, MPC-11, MPC11; GDF8-stimulated; p-SMAD3 AlphaScreen; read-out: GDF pSMAD (MPC11) (inhibition of GDF8 signaling)

| SMILES | IC50 [µM] |
| --- | --- |
| FC(F)(F)c1cccc(-c2ncccc2-c2ccn3ncnc3c2)c1 [compound 879, 7-(2-(3-(Trifluoromethyl)phenyl)pyridin-3-yl)-[1,2,4]triazolo[1,5-a]pyridine] | 1.48 |
| CN(C)c1cnc2ccc(-c3cccnc3-c3cccc(C4CC4)c3)cn12 [compound 553, 6-(2-(3-Cyclopropylphenyl)pyridin-3-yl)-N,N-dimethylimidazo[1,2-a]pyridin-3-amine] | 3.24 |
| N#Cc1cccc(-c2ncccc2-c2ccc3[nH]ncc3c2)c1 [Compound 112, 3-(3-(1H-Indazol-5-yl)pyridin-2-yl)benzonitrile] | 0.273 |
| Cc1cc(-c2ncccc2-c2ccn3ncc(C(=O)NCCCN4CCCC4)c3c2)ccc1F [compound 675, 5-(2-(4-Fluoro-3-methylphenyl)pyridin-3-yl)-N-(3-(pyrrolidin-1-yl)propyl)pyrazolo[1,5-a]pyridine-3-carboxamide] | 0.227 |
| c1cnc(-c2ccc3[nH]ncc3c2)c(-c2ccc3[nH]ncc3c2)c1 [Compound 64, 5-(3-(1H-Indazol-5-yl)pyridin-2-yl)-1H-indazole] | 0.84 |
| Nc1ncnc2ccc(-c3cccnc3-c3ccc(F)cc3F)cc12 [compound 455, 6-(2-(2,4-Difluorophenyl)pyridin-3-yl)quinazolin-4-amine] | 1.16 |
| Cc1cccc(-c2cccnc2-c2ccc3nc[nH]c3c2)n1 [compound 521, 6-(6-Methyl-[2,3′-bipyridin]-2′-yl)-1H-benzo[d]imidazole] | 8.06 |
| Cc1cc(-c2ncccc2-c2ccc3ncc(C(F)(F)F)n3c2)ccc1F [compound 555, 6-(2-(4-Fluoro-3-methylphenyl)pyridin-3-yl)-3-(trifluoromethyl)imidazo[1,2-a]pyridine] | 0.156 |
| CN1CCC(NC(=O)c2cnc3ccc(-c4cccnc4-c4cc(Cl)c(F)cc4F)cn23)CC1 [compound 723, 6-(2-(5-Chloro-2,4-difluorophenyl)pyridin-3-yl)-N-(1-methylpiperidin-4-yl)imidazo[1,2-a]pyridine-3-carboxamide] | 0.102 |
| Cc1cc(-c2ncccc2-c2ccc3[nH]cnc(=O)c3c2)ccc1F [compound 346, 6-(2-(4-Fluoro-3-methylphenyl)pyridin-3-yl)quinazolin-4(1H)-one] | 0.193 |
| O=C(NCCCN1CCCC1=O)c1cnc2ccc(-c3cccnc3-c3cccc(Cl)c3)cn12 [compound 726, 6-(2-(3-Chlorophenyl)pyridin-3-yl)-N-(3-(2-oxopyrrolidin-1-yl)propyl)imidazo[1,2-a]pyridine-3-carboxamide] | 0.565 |
| c1cc(-c2ncccc2-c2cnc3[nH]ncc3c2)cc(C2CC2)c1 [Compound 152, 5-(2-(3-Cyclopropylphenyl)pyridin-3-yl)-1H-pyrazolo[3,4-b]pyridine] | 0.0487 |
| OCc1cc(-c2ncccc2-c2ccc3[nH]ncc3c2)ccc1F [Compound 89, (5-(3-(1H-Indazol-5-yl)pyridin-2-yl)-2-fluorophenyl)methanol] | 2.55 |
| [2H]C([2H])([2H])c1cccc(-c2ncccc2-c2ccn3cncc3c2)c1 [compound 604, 7-(2-(3-(Methyl-d3)phenyl)pyridin-3-yl)imidazo[1,5-a]pyridine] | 8.52 |
| Cc1cc(-c2ncccc2-c2ccc3ncc(C(=O)NCCCN4CCOCC4)n3c2)ccc1F [compound 609, 6-(2-(4-Fluoro-3-methylphenyl)pyridin-3-yl)-N-(3-morpholinopropyl)imidazo[1,2-a]pyridine-3-carboxamide] | 0.319 |
| FC(F)(F)c1cccc(-c2ncccc2-c2ccc3nccn3c2)c1 [Compound 199, 6-(2-(3-(Trifluoromethyl)phenyl)pyridin-3-yl)H-imidazo[1,2-a]pyridine] | 1.16 |
| Nc1nc2ccc(-c3cccnc3-c3ccc(F)c(Cl)c3)cn2n1 [compound 291, 6-(2-(3-Chloro-4-fluorophenyl)pyridin-3-yl)-[1,2,4]triazolo[1,5-a]pyridin-2-amine] | 1.23 |
| Cn1cnc2ccc(-c3cccnc3-c3ccc(F)c(Cl)c3)cc21 [compound 768, 6-(2-(3-Chloro-4-fluorophenyl)pyridin-3-yl)-1-methyl-1H-benzo[d]imidazole] | 0.327 |
| COc1ncnc2ccc(-c3cccnc3-c3cc(Cl)c(F)cc3F)cc12 [compound 821, 6-(2-(5-Chloro-2,4-difluorophenyl)pyridin-3-yl)-4-methoxyquinazoline] | 2.16 |
| CNC(=O)COCc1cnc(-c2ccc(F)c(C)c2)c(-c2ccc3nccnc3c2)c1 [compound 232, 2-((6-(4-Fluoro-3-methylphenyl)-5-(quinoxalin-6-yl)pyridin-3-yl)methoxy)-N-methylacetamide] | 10.6 |
| Cc1cc(-c2ncccc2-c2ccc3ncnc(Oc4cccnc4)c3c2)ccc1F [compound 442, 6-(2-(4-Fluoro-3-methylphenyl)pyridin-3-yl)-4-(pyridin-3-yloxy)quinazoline] | 0.366 |
| Fc1ccc(-c2ncccc2-c2cnc3[nH]ncc3c2)cc1 [Compound 80, 5-(2-(4-Fluorophenyl)pyridin-3-yl)-1H-pyrazolo[3,4-b]pyridine] | 6.33 |
| Cc1c(-c2cccnc2-c2cccc(Cl)c2)ccc2ncnn12 [compound 811, 6-(2-(3-Chlorophenyl)pyridin-3-yl)-5-methyl-[1,2,4]triazolo[1,5-a]pyridine] | 2.92 |

Continued, values first:

| IC50 [µM] | SMILES |
| --- | --- |
| 1.17 | Cc1cccc(-c2cccnc2-c2ccc3[nH]ncc3c2)n1 [compound 517, 5-(6-Methyl-[2,3′-bipyridin]-2′-yl)-1H-indazole] |
| 0.264 | Cc1cccc(-c2ncccc2-c2cnc3[nH]ncc3c2)c1 [Compound 79, 5-(2-m-Tolylpyridin-3-yl)-1H-pyrazolo[3,4-b]pyridine] |
| 0.59 | Cc1cc(-c2ncc(NCc3cnc4ccccc4c3)cc2-c2ccc3ncsc3c2)ccc1F [compound 339, 5-(Benzo[d]thiazol-6-yl)-6-(4-fluoro-3-methylphenyl)-N-(quinolin-3-ylmethyl)pyridin-3-amine] |
| 0.714 | CCOC(=O)c1cnn2ccc(-c3cccnc3-c3ccc(F)c(Cl)c3)nc12 [compound 898, Ethyl 5-(2-(3-chloro-4-fluorophenyl)pyridin-3-yl)pyrazolo[1,5-a]pyrimidine-3-carboxylate] |
| 0.997 | Fc1ccc(OC(F)(F)F)cc1-c1ncccc1-c1ccn2ncnc2c1 [compound 884, 7-(2-(2-Fluoro-5-(trifluoromethoxy)phenyl)pyridin-3-yl)-[1,2,4]triazolo[1,5-a]pyridine] |
| 4.86 | Nc1ccnc2ccc(-c3cccnc3-c3ccc(F)c(Cl)c3)cc12 [compound 837, 6-(2-(3-Chloro-4-fluorophenyl)pyridin-3-yl)quinolin-4-amine] |
| 0.671 | CC(=O)Nc1cnc(-c2ccc(F)c(C)c2)c(-c2ccc3[nH]ncc3c2)c1 [Compound 24, N-(6-(4-Fluoro-3-methylphenyl)-5-(1H-indazol-5-yl)pyridin-3-yl)acetamide] |
| 0.112 | c1cc(-c2ncccc2-c2ccn3nccc3n2)cc(C2CC2)c1 [compound 912, 5-(2-(3-Cyclopropylphenyl)pyridin-3-yl)pyrazolo[1,5-a]pyrimidine] |
| 5.35 | Oc1ccc(-c2ncccc2-c2ccc3[nH]ncc3c2)cc1 [Compound 121, 4-(3-(1H-Indazol-5-yl)pyridin-2-yl)phenol] |
| 0.678 | CCc1cccc(-c2ncccc2-c2cnc3[nH]ncc3c2)c1 [Compound 151, 5-(2-(3-Ethylphenyl)pyridin-3-yl)-1H-pyrazolo[3,4-b]pyridine] |
| 0.224 | COc1cccc(-c2ncccc2-c2cnc3[nH]ncc3c2)c1 [Compound 155, 5-(2-(3-Methoxyphenyl)pyridin-3-yl)-1H-pyrazolo[3,4-b]pyridine] |
| 1.49 | Cc1cc(-c2ncc(-c3cccc(S(N)(=O)=O)c3)cc2-c2ccc3ncsc3c2)ccc1F [compound 347, 3-(5-(Benzo[d]thiazol-6-yl)-6-(4-fluoro-3-methylphenyl)pyridin-3-yl)benzenesulfonamide] |
| 0.227 | Cc1cnc2ccc(-c3cccnc3-c3cc(Cl)ccc3F)cn12 [compound 767, 6-(2-(5-Chloro-2-fluorophenyl)pyridin-3-yl)-3-methylimidazo[1,2-a]pyridine] |
| 10.5 | Cc1cccc(-c2ncccc2-c2ccc3ncn(CCCN4CCOCC4)c3c2)c1 [compound 250, 4-(3-(6-(2-m-Tolylpyridin-3-yl)-1H-benzo[d]imidazol-1-yl)propyl)morpholine] |
| 4.65 | CCN(CC)c1ncnc2ccc(-c3cccnc3-c3cccc(O)c3)cc12 [compound 399, 3-(3-(4-(Diethylamino)quinazolin-6-yl)pyridin-2-yl)phenol] |
| 1.22 | CC(=O)c1cnc2ccc(-c3cccnc3-c3cccc(C(F)(F)F)c3)cn12 [compound 589, 1-(6-(2-(3-(Trifluoromethyl)phenyl)pyridin-3-yl)imidazo[1,2-a]pyridin-3-yl)ethan-1-one] |
| 0.752 | Cc1cnc(-c2cccc(C(F)(F)F)c2)c(-c2ccn3ncnc3c2)c1 [compound 867, 7-(2-(3-((Difluoro-13-methyl)-12-fluoranyl)phenyl)-5-methylpyridin-3-yl)-[1,2,4]triazolo[1,5-a]pyridine] |
| 5.78 | Cc1c(-c2cccnc2-c2ccc(F)c(Cl)c2)ccc2ncnn12 [compound 810, 6-(2-(3-Chloro-4-fluorophenyl)pyridin-3-yl)-5-methyl-[1,2,4]triazolo[1,5-a]pyridine] |
